Patent US20240310364A1, “TUNABLE DYNAMIC AND NON-DYNAMIC HYDROGEL SYSTEMS” (The Johns Hopkins University, priority 2021, published 2024)

Columns and labels:
ECFCs [1] = experiment: Inhibition studies (FI 14, GM6001, blebbistatin) in ECFC-loaded D-hydrogels; format: cell-based, human; design: unit of the concentration uncertain; conditions: 0.1 (unit uncertain), versus controls
ECFCs [2] = experiment: as above; format: cell-based, human; design: ECFC aspect ratio (cell spreading) / integrin cluster size and area covered / integrin intensity and number / cellular protrusions and filopodia / sprouting: unit of the concentration uncertain; conditions: for vascular bed formation (tube length and volume): 3 days, blebbistatin 60 mM, FI 14 10 mM
Procedure: For 2D screening of the FI 14 (FI-14, R 95.0%; Sigma-Aldrich), the ECFCs were seeded into a 96-well plate at a cell density of 10000 cells/well in EGM-2 media (Lonza) with 10% FBS (Hyclone). After 1 day of culture, 100 μL of EGM-2 media containing increased concentrations of FI 14 ranging from 0 to 10 μM were added per well and culture for additional 24 hr following by staining for phospho-FAK (Tyr397;ThermoFisher Scientific) as described below. Biological triplicates were tested for each FI 14 concentrations. For inhibition studies, ECFCs were suspended in the hydrogel precursor as above with the addition of 10 mM of FI-14 (Sigma-Aldrich) or GM6001 (1 mg mL^−1; Sigma-Aldrich), 60 mM Blebbistain (Sigma-Aldrich) or vehicle control (DMSO; Sigma-Aldrich). The corresponding culture media also supplied with the corresponding inhibitor/vehicle control at the same concentration. Media was replenish every 24 h till analysis.

mUPS spheroids = experiment: Sarcoma spheroid encapsulation in hydrogels; format: cell-based, murine; conditions: co-encapsulated in quick-relaxing hydrogels
Procedure: Spheroids were formed using hanging droplet culture. Briefly, cell monolayers were grown until ˜75% confluent, rinsed with PBS, and passaged with 0.25% Trypsin-EDTA. Hanging droplets of 10,000 cells/20 μL droplet were formed on the inside of the cover of a 60 mm […]. 10 mL of PBS were placed in the bottom of the dish to act as a hydration chamber. Spheroids were cultured as hanging droplets for three days prior to encapsulation in hydrogels. 10 μl of media was added to each droplet on the second day of droplet culture.
For spheroid encapsulation, a similar protocol was followed with the adjustments for spheroids. We first collected 12 spheroids in a 1.5 mL Eppendorf tube, centrifuged for 3 minutes, and then pipetted off the media. All subsequent steps were identical to single-cell encapsulation. Cells in hydrogels were cultured under standard conditions and daily media changes of 200 μL.
Light microscopy images of encapsulated cells were recorded daily at 4×, 10×, and 20× magnifications starting at post-encapsulation (PE) Day 0. For spheroid area quantification, 10× images were grouped by individual spheroid and the area of the spheroid was manually traced in FIJI (NIH) for each day. Days 1-3 were normalized to the size of the spheroid on Day 0. […]

[3] = 60 (unit uncertain), 24 h, ECFCs in D-hydrogels

Structure (SMILES)	tubulogenesis of ECFCs (ECFCs [1])	stiffness of ECFC-loaded D-hydrogels (ECFCs [2]; day 3, versus without MMP inhibitor)	spheroid size under contractility inhibition (mUPS spheroids)	cellular protrusions and filopodia (ECFCs [2]; [3])	integrin cluster size and area covered (ECFCs [2]; [3])	integrin intensity and number (ECFCs [2]; [3])	vascular bed formation (tube length and volume) (ECFCs [2]; ECFCs in D-hydrogels)	ECFC aspect ratio (cell spreading) (ECFCs [2]; 10 (unit uncertain), 24 h, versus control D-hydrogels)	sprouting (ECFCs [2]; 10 (unit uncertain), ECFCs in D-hydrogels)	phosphorylation of MLC (ECFCs [2]; 24 h, ECFCs in D-hydrogels)	integrin β1 and integrin aV mRNA expression (ECFCs [2]; 24 h, versus D-hydrogel controls)	MMP1 and MMP9 mRNA levels (ECFCs [2]; 24 h, versus untreated controls)	MT1-MMP expression at protein and mRNA levels (ECFCs [2]; 24 h in culture)
CNC(=O)[C@H](Cc1c[nH]c2ccccc12)NC(=O)[C@@H](CC(=O)NO)CC(C)C [GM6001]	inhibited	significantly stiffer											
Cc1ccc2c(c1)C(=O)C1(O)CCN(c3ccccc3)C1=N2 (centres unmarked) [blebbistatin]			not sufficient to fully mirror spheroid shrinkage	decrease	significant decrease	did not affect	shorter tube length and reduced vessel volume						
Nc1cc(N)c(N)cc1N [FI 14]							decrease in tube length and volume	cell spreading is reduced	significant reduction	reduces the phosphorylation of MLC	downregulation	significant reduction	significantly lower expression
